The values that follow come from US20070128217A1 (priority 2003, published 2007).

Assay [1] deals with rabbit serum obtained by immunizing a rabbit with the SARS-CoV strain Frankfurt 1. The class given is binding. The arrangement: Binding of a rabbit serum to linear peptides / Binding of a rabbit serum to looped peptides / Rabbit serum linear peptides / Rabbit serum looped peptides / Binding of a rabbit serum to linear peptides of protein N of SARS-CoV Urbani (Rabbit serum linear peptides) / Binding of a rabbit serum to looped/cyclic peptides of protein N of SARS-CoV Urbani (Rabbit serum looped peptides): unit not given here.

The test system of assay [2] is control sera (pooled serum of ten healthy LUMC hospital workers; commercial negative donor pooled serum from the Dutch bloodbank). The class given is binding, human. Also noted: Binding of Control serum LUMC to linear peptides / Binding of Control serum Blood-bank to linear peptides / Binding of Control serum LUMC to looped peptides / Binding of Control Serum Blood-Bank to Looped peptides / Binding of Control serum LUMC to linear peptides of the protein M of SARS-CoV Urbani / Binding of Control serum Blood-bank to linear peptides of the protein M of SARS-CoV Urbani / Binding of Control serum LUMC to looped peptides of the protein M of SARS-CoV Urbani / Binding of Control Serum Blood-Bank to Looped peptides of the protein M of SARS-CoV Urbani: unit not given here.

On to TPKLKEDYQIGGYSE, for which, in assay [1], the “Binding of a rabbit serum to linear peptides” value is recorded as 0.1 and the “Binding of a rabbit serum to looped peptides” value is on record as 1.2. Further, in assay [2], the “Binding of Control Serum Blood-Bank to Looped peptides” value turned out to be 0.7, the “Binding of Control serum Blood-bank to linear peptides” value is 0.5, the “Binding of Control serum LUMC to linear peptides” value is 0.6 and the “Binding of Control serum LUMC to looped peptides” value came out at 0.9.

On to TQVLKTMSLYMAISP, for which, in assay [1], the “Binding of a rabbit serum to linear peptides” value worked out at 0.1 and the “Binding of a rabbit serum to looped peptides” value turned out to be 0.4. For the same sequence, in assay [2], the “Binding of Control Serum Blood-Bank to Looped peptides” value is recorded as 0.7, the “Binding of Control serum Blood-bank to linear peptides” value stood at 0.7, the “Binding of Control serum LUMC to linear peptides” value came to 0.7 and the “Binding of Control serum LUMC to looped peptides” value is 0.8.

For TTKLVVILRIGTQVL, in assay [1], the “Recognition of the peptide by the rabbit serum” value is on record as “recognized”. Further, in assay [2], the “Binding of Control Serum Blood-Bank to Looped peptides” value came out at 0.6, the “Binding of Control serum Blood-bank to linear peptides” value amounted to 0.3, the “Binding of Control serum LUMC to linear peptides” value came out at 0.3 and the “Binding of Control serum LUMC to looped peptides” value was 0.7.

Consider TVYVYSRVKNLNSSE, for which, in assay [1], the “Binding of a rabbit serum to linear peptides” value is recorded as 0.8 and the “Binding of a rabbit serum to looped peptides” value came out at 0.3. Besides, in assay [2], the “Binding of Control Serum Blood-Bank to Looped peptides” value was 0.7, the “Binding of Control serum Blood-bank to linear peptides” value came out at 0.5, the “Binding of Control serum LUMC to linear peptides” value is 0.3 and the “Binding of Control serum LUMC to looped peptides” value is given as 0.9.

As to VANPAMDPIYDEPTT, in assay [1], the “Binding of a rabbit serum to linear peptides” value is listed as 0.1 and the “Binding of a rabbit serum to looped peptides” value was found to be 0.5. Moreover, in assay [2], the “Binding of Control Serum Blood-Bank to Looped peptides” value worked out at 0.5, the “Binding of Control serum Blood-bank to linear peptides” value is given as 0.4, the “Binding of Control serum LUMC to linear peptides” value turned out to be 0.2 and the “Binding of Control serum LUMC to looped peptides” value is 0.5.

For the sequence VCWHTHNYDYCIPYN, in assay [1], the “Binding of a rabbit serum to linear peptides” value was 0.1 and the “Binding of a rabbit serum to looped peptides” value worked out at 0.6. In assay [2], the “Binding of Control Serum Blood-Bank to Looped peptides” value was determined as 0.7, the “Binding of Control serum Blood-bank to linear peptides” value was found to be 0.7, the “Binding of Control serum LUMC to linear peptides” value is recorded as 0.8 and the “Binding of Control serum LUMC to looped peptides” value is 0.6.

Consider VIISSIVRQLFKPLT, for which, in assay [1], the “Rabbit serum linear peptides” value came out at 0.5 and the “Rabbit serum looped peptides” value was determined as 0.3. Further, in assay [2], the “Binding of Control Serum Blood-Bank to Looped peptides of the protein X3 of SARS-CoV Urbani” value was determined as 0.7, the “Binding of Control serum Blood-bank to linear peptides of the protein X3 of SARS-CoV Urbani” value came out at 0.8, the “Binding of Control serum LUMC to linear peptides of the protein X3 of SARS-CoV Urbani” value was 0.7 and the “Binding of Control serum LUMC to looped peptides of the protein X3 of SARS-CoV Urbani” value worked out at 0.8.

As for VKNLNSSEGVPDLLV, in assay [1], the “Binding of a rabbit serum to linear peptides” value is recorded as 0.3 and the “Binding of a rabbit serum to looped peptides” value is given as 0.6. In assay [2], the “Binding of Control Serum Blood-Bank to Looped peptides” value is reported as 0.8, the “Binding of Control serum Blood-bank to linear peptides” value is 0.7, the “Binding of Control serum LUMC to linear peptides” value was 1.1 and the “Binding of Control serum LUMC to looped peptides” value turned out to be 0.9.

In the case of VKPTVYVYSRVKNLN, in assay [1], the “Binding of a rabbit serum to linear peptides” value came out at 0.5 and the “Binding of a rabbit serum to looped peptides” value was determined as 0.7. Also, in assay [2], the “Binding of Control Serum Blood-Bank to Looped peptides” value amounted to 0.8, the “Binding of Control serum Blood-bank to linear peptides” value is 0.8, the “Binding of Control serum LUMC to linear peptides” value amounted to 0.4 and the “Binding of Control serum LUMC to looped peptides” value is listed as 0.8.

Take VNVSLVKPTVYVYSR: in assay [1], the “Binding of a rabbit serum to linear peptides” value came to 0.4 and the “Binding of a rabbit serum to looped peptides” value is 0.6. For the same sequence, in assay [2], the “Binding of Control Serum Blood-Bank to Looped peptides” value was 0.6, the “Binding of Control serum Blood-bank to linear peptides” value is 0.6, the “Binding of Control serum LUMC to linear peptides” value is listed as 0.8 and the “Binding of Control serum LUMC to looped peptides” value is reported as 0.8.

Consider VSLVKPTVYVYSRVK, for which, in assay [1], the “Binding of a rabbit serum to linear peptides” value came to 1.5 and the “Binding of a rabbit serum to looped peptides” value is 2.0. In addition, in assay [2], the “Binding of Control Serum Blood-Bank to Looped peptides” value turned out to be 0.6, the “Binding of Control serum Blood-bank to linear peptides” value is listed as 0.9, the “Binding of Control serum LUMC to linear peptides” value amounted to 0.6 and the “Binding of Control serum LUMC to looped peptides” value stood at 0.9.

With VYSRVKNLNSSEGVP, in assay [1], the “Binding of a rabbit serum to linear peptides” value came out at 0.7 and the “Binding of a rabbit serum to looped peptides” value amounted to 0.0. In assay [2], the “Binding of Control Serum Blood-Bank to Looped peptides” value is 1.0, the “Binding of Control serum Blood-bank to linear peptides” value amounted to 0.9, the “Binding of Control serum LUMC to linear peptides” value came out at 0.6 and the “Binding of Control serum LUMC to looped peptides” value worked out at 0.7.

In the case of VYVYSRVKNLNSSEG, in assay [1], the “Binding of a rabbit serum to linear peptides” value is reported as 0.3 and the “Binding of a rabbit serum to looped peptides” value was 0.4. In assay [2], the “Binding of Control Serum Blood-Bank to Looped peptides” value is given as 0.8, the “Binding of Control serum Blood-bank to linear peptides” value was found to be 0.5, the “Binding of Control serum LUMC to linear peptides” value came to 0.8 and the “Binding of Control serum LUMC to looped peptides” value amounted to 0.8.

Turning to WHTHNYDYCIPYNSV, in assay [1], the “Binding of a rabbit serum to linear peptides” value worked out at 0.1 and the “Binding of a rabbit serum to looped peptides” value came out at 0.6. In assay [2], the “Binding of Control Serum Blood-Bank to Looped peptides” value is listed as 0.7, the “Binding of Control serum Blood-bank to linear peptides” value is given as 0.7, the “Binding of Control serum LUMC to linear peptides” value is given as 0.8 and the “Binding of Control serum LUMC to looped peptides” value was 0.9.

For WHTMVQTCTPNVTIN, in assay [1], the “Rabbit serum linear peptides” value came to 0.5 and the “Rabbit serum looped peptides” value was 0.0. In assay [2], the “Binding of Control Serum Blood-Bank to Looped peptides” value turned out to be 0.5, the “Binding of Control serum Blood-bank to linear peptides” value is on record as 1.0, the “Binding of Control serum LUMC to linear peptides” value is 0.5 and the “Binding of Control serum LUMC to looped peptides” value was 0.4.

For YCCNIVNVSLVKPTV, in assay [1], the “Binding of a rabbit serum to linear peptides” value was 0.7 and the “Binding of a rabbit serum to looped peptides” value stood at 0.3. In addition, in assay [2], the “Binding of Control Serum Blood-Bank to Looped peptides” value turned out to be 0.7, the “Binding of Control serum Blood-bank to linear peptides” value is 0.9, the “Binding of Control serum LUMC to linear peptides” value is listed as 0.6 and the “Binding of Control serum LUMC to looped peptides” value turned out to be 0.6.

Turning to YCIPYNSVTDTIVVT, in assay [1], the “Binding of a rabbit serum to linear peptides” value was found to be 0.1 and the “Binding of a rabbit serum to looped peptides” value was found to be 0.5. For the same sequence, in assay [2], the “Binding of Control Serum Blood-Bank to Looped peptides” value stood at 0.7, the “Binding of Control serum Blood-bank to linear peptides” value amounted to 0.8, the “Binding of Control serum LUMC to linear peptides” value is recorded as 0.7 and the “Binding of Control serum LUMC to looped peptides” value is recorded as 0.7.

Regarding YDYCIPYNSVTDTIV, in assay [1], the “Binding of a rabbit serum to linear peptides” value is listed as 0.1 and the “Binding of a rabbit serum to looped peptides” value stood at 0.5. Further, in assay [2], the “Binding of Control Serum Blood-Bank to Looped peptides” value came to 0.5, the “Binding of Control serum Blood-bank to linear peptides” value was determined as 0.6, the “Binding of Control serum LUMC to linear peptides” value is on record as 0.7 and the “Binding of Control serum LUMC to looped peptides” value came out at 0.6.

With YFVCWHTHNYDYCIP, in assay [1], the “Binding of a rabbit serum to linear peptides” value was found to be 0.1 and the “Binding of a rabbit serum to looped peptides” value is given as 0.6. For the same sequence, in assay [2], the “Binding of Control Serum Blood-Bank to Looped peptides” value was found to be 0.6, the “Binding of Control serum Blood-bank to linear peptides” value was determined as 0.6, the “Binding of Control serum LUMC to linear peptides” value stood at 0.7 and the “Binding of Control serum LUMC to looped peptides” value was found to be 0.6.

As to YKLGASQRVGTDSGF, in assay [1], the “Rabbit serum linear peptides” value turned out to be 0.4 and the “Rabbit serum looped peptides” value came out at 0.2. In assay [2], the “Binding of Control Serum Blood-Bank to Looped peptides of the protein M of SARS-CoV Urbani” value is given as 0.7, the “Binding of Control serum Blood-bank to linear peptides of the protein M of SARS-CoV Urbani” value is 0.7, the “Binding of Control serum LUMC to linear peptides of the protein M of SARS-CoV Urbani” value is recorded as 0.4 and the “Binding of Control serum LUMC to looped peptides of the protein M of SARS-CoV Urbani” value is listed as 0.9.

With YQECVRGTTVLLKEP, in assay [1], the “Rabbit serum linear peptides” value turned out to be 0.5 and the “Rabbit serum looped peptides” value was 0.5. In addition, in assay [2], the “Binding of Control Serum Blood-Bank to Looped peptides” value came out at 0.9, the “Binding of Control serum Blood-bank to linear peptides” value is 0.8, the “Binding of Control serum LUMC to linear peptides” value is listed as 0.7 and the “Binding of Control serum LUMC to looped peptides” value is given as 0.8.

For the sequence YSEDRHSGVKDYVVV, in assay [1], the “Binding of a rabbit serum to linear peptides” value amounted to 0.1 and the “Binding of a rabbit serum to looped peptides” value amounted to 0.4. Further, in assay [2], the “Binding of Control Serum Blood-Bank to Looped peptides” value was 0.7, the “Binding of Control serum Blood-bank to linear peptides” value was 0.7, the “Binding of Control serum LUMC to linear peptides” value was found to be 0.6 and the “Binding of Control serum LUMC to looped peptides” value is on record as 0.8.

As to YSELDDEEPMELDYP, in assay [1], the “Rabbit serum linear peptides” value is on record as 0.3 and the “Rabbit serum looped peptides” value is on record as 0.3. In assay [2], the “Binding of Control Serum Blood-Bank to Looped peptides of the protein X3 of SARS-CoV Urbani” value turned out to be 0.8, the “Binding of Control serum Blood-bank to linear peptides of the protein X3 of SARS-CoV Urbani” value was found to be 0.7, the “Binding of Control serum LUMC to linear peptides of the protein X3 of SARS-CoV Urbani” value amounted to 0.9 and the “Binding of Control serum LUMC to looped peptides of the protein X3 of SARS-CoV Urbani” value was determined as 0.8.
